“Also recorded” adds a separate entry of the source.
Key:
rat cornea = assay: Rat cornea pocket angiogenesis assay (growth factor pellets); format: in vivo; details: for angiogenic response to growth factor alone: 250 ng growth factor per pellet
Description: (i) Preparation of sustained-release polymer: Sustained-release polymer pellets were prepared by making a 1:1 mix of a 12% solution in ethanol of the polymer (Hydron polyhydroxyethylmethacrylate), with saline containing the growth factors. The growth factors bFGF, VEGF, and EGF were dissolved at a concentration of 125 ng/μl. […] 2 μl of these solutions were added to each pellet. Thus, a pellet containing 250 ng of a single growth factor was implanted at random in the right or left eye. The other eye was implanted with a pellet containing the same dose of growth factor+HET0016. In some rats the pellet contained VEGF alone and VEGF+DDMS. 20 μg of the stable 20-HETE agonist analog WIT003 was implanted in one eye to determine whether it induces angiogenesis. […] 9 μl of the 1:1 Hydron/treatment mixture was placed on the ends of 1.5-cm rods. Each pellet contained 250 ng of its respective growth factor. For bFGF we used sucralfate to stabilize and allow sustained release of this growth factor (Volkin D B et al., Biochim Biophys Acta 1993, 1203:18-26). After drying the pellets for 1 hour, they were ready to be implanted into the cornea of rats.
(ii) Pellet implantation: The rats were anesthetized IM with ketamine (80 mg/kg) and xylazine (10 mg/kg). The eyes were topically anesthetized with 0.5% proparacaine (Ophthetic, Alcon, Tex.) and the globes proptosed with a jeweler's forceps. Using an operating microscope, a central intrastromal linear keratotomy, approximately 1.5 mm in length, was performed with a surgical blade (Bard-Parker #11; Becton Dickinson, Franklin Lake, N.Y.) parallel to the insertion of the lateral rectus muscle. A curved iris spatula (No. 10093-13, Fine Science Tools, Belmont, Calif.) approximately 1.5 mm wide and 5 mm long was inserted under the lip of the incision and gently pushed through the stroma toward the temporal limbus of the eye. The distance between the limbus and the base of the pocket was kept at 1.0±0.1 mm. The pellet was advanced to the temporal end of the pocket. Antibiotic ointment (erythromycin) was applied to the anterior surface of the eye.
(iv) Quantitation of corneal neovascularization: Seven days after pellet implantation, the rats were deeply anesthetized as previously described with ketamine and xylazine. The left ventricle was cannulated and the animal was perfused with 20-25 ml saline through the left ventricle followed by 20-25 ml India ink (waterproof drawing ink, Sanford, Bellwood, Ill.). The eyes were marked for orientation, enucleated and placed in 4% formalin for 24 hours. The cornea was dissected free from the surrounding globe and underlying iris, bisected, and loosely mounted between two glass slides, thus gently flattening the cornea. These flat mounts were examined microscopically using a Nikon Diaphot Epi-fluor 2 microscope attached to a CCD video camera and the images were digitized and saved using a computer.
Neovascularization was determined by comparing total vessel length in the control and experimental eyes. Vessel length was determined by tracing each vessel from the limbus to the pellet. Total length is the sum of these values in pixels and was determined using conventional image analysis software (Sigma Scan Pro, SPSS, Chicago, Ill.)

HUVECs = HUVECs proliferation assay (CellTiter96 AQueous One); format: cell-based, human
Description: HUVECs were seeded onto a 96-well plate at 1×10^4 cells/well. […] Organic solvent concentration never exceeded 0.1% of total culture volume. […] 20 μl of Aqueous One reagent was added to the 100 μl medium in each well. The plates were incubated for 2 hours at 37° C. in a humidified incubator. Absorbance was recorded at 490 nm using a 96-well Bio Kinetics Reader EL340 (Bio-TEK, Winooski, Vt.). The data represent changes in percent absorbance of treated cultures compared with control cells. Three different experiments were carried out, and each point was determined in triplicate.

U251 human glioma cells = assay: U251 cell proliferation assay (cell counting); format: cell-based; details: for increase of U251 cell proliferation: 1 μM agonist, 48 hr, serum-starved
Description: Culture Conditions: Cells were routinely maintained in DMEM (Invitrogen) supplemented with 10% heat-inactivated fetal bovine serum (FBS), penicillin (10 IU/ml), streptomycin (10 μg/ml) and 10% non-essential amino acids (all purchased from Invitrogen). Cells were maintained at 37° C. in a humidified incubator containing 5% CO2. They were grown in medium containing 10% FBS, which was then replaced with serum-free medium where U251 cells grow exponentially. Treatments were initiated one day after serum removal.
Cell Proliferation Assays: Proliferation studies were performed with cultures plated at a density that ensured exponential growth for at least 5 days. Growth medium was generally replaced by serum-free medium 24 hr after plating. Cells were treated with various concentrations of a given compounds for 24 or 48 hr as described in the Methods. […] Organic solvent never exceeded 0.1% of total culture volume. Cells were harvested by exposure to 0.05% trypsin/EDTA and counted using a hemocytometer.

9L rat gliosarcoma cells = assay: 9L cell proliferation assay (cell counting); format: cell-based
Description: Culture Conditions: 9L rat gliosarcoma cells were purchased from ATC (Gaithersburg, Md.) and were maintained in DMEM (Invitrogen) supplemented with 10% heat-inactivated fetal bovine serum (FBS), penicillin (10 IU/ml), streptomycin (10 μg/ml) and 10% non-essential amino acids (all purchased from Invitrogen). Cells were maintained at 37° C. in a humidified incubator containing 5% CO2. They were grown in medium containing 10% FBS, which was then replaced with serum-free medium (give type and source) where 9L cells grow exponentially.
Cell Proliferation Assays: Proliferation studies were performed with cultures plated at a density that ensured exponential growth for at least 5 days. Growth medium were generally replaced by serum free medium 24 hr after plating. […] The concentration of the ethanol added to the media never exceeded 0.1%. Cells were harvested by exposure to a solution of 0.05% Trypsin/EDTA and counted using a hemocytometer.

20-HETE = details: cited from earlier work
[1] = up to 40 μg palmitic acid per pellet

For `CCCCCCCCCCCCCCCC(=O)O` [palmitic acid], the “angiogenic effect of fatty acid control alone” value (rat cornea; [1]) was “had no effect by itself”, the “influence of fatty acid control on angiogenic responses to VEGF” value (rat cornea; [1]) was “no difference in angiogenic responses to VEGF” and the “influence of fatty acid control on angiogenic responses to VEGF” value (rat cornea; up to 40 μg palmitic acid per pellet, listed as Palmitic acid) was “showed no ability to influence angiogenic responses to VEGF”.

For `O=C(O)CCCC/C=C\CCCCCCC/C=C\CCCCO` [WIT003, 20-hydroxyeicosa-6(Z),15(Z)-dienoic acid], the “effect on proliferation of HUVECs” value (HUVECs; 1 μM WIT003, 48 hours) was “increased the proliferation rate; also recorded: increased proliferation of the cells”, the “angiogenic response to the 20-HETE analog alone” value (rat cornea; 20 μg WIT003 per pellet, 7 days) was “induced an angiogenic response” and the “stimulatory effect on proliferation of U251 cells” value (U251 human glioma cells; 0.1 μM WIT003, 48 hr) was “has no more stimulatory effect on proliferation of U251 cells than 50 ng/ml EGF”. For the same molecule, the “rescue of U251 cells from the anti-proliferative effects of HET0016” value (U251 human glioma cells; 1 μM WIT003 + 10 μM HET0016, 48 h) was “reverses the effects of HET0016; also recorded: can rescue”, the “U251 proliferation with WIT003 and HET0016, increase above HET0016 alone” value (U251 human glioma cells; 1 μM WIT003 + 10 μM HET0016, 2 days) was “about 70%” and the “U251 growth stimulation compared with EGF” value (U251 human glioma cells; 1 μM WIT003, 48 h) was “comparable to the growth stimulating effect induced by 200 ng/ml EGF; also recorded: as much as 200 ng/ml EGF”. For the same molecule, the “increase of U251 cell proliferation” value (U251 human glioma cells) was 20%, the “stimulation of 9L proliferation compared with EGF” value (9L rat gliosarcoma cells; 1 μM WIT003) was “A similar degree of stimulation” and the “rescue of 9L cells from the inhibitory actions of HET0016” value (9L rat gliosarcoma cells; 1 μM WIT003 + 10 μM HET0016) was “partially rescued”.

In the case of `C#CCCCCCCCCCCCCCCCC(=O)O` [17-ODYA, 17-Octadecynoic acid], the “ability to reduce 20-HETE levels in vivo” value (20-HETE) is listed as “reduce 20-HETE levels in vivo”.

For `O=C(O)CCC/C=C\CCCCCCC/C=C\CCCCCO` [20-hydroxyeicosa-5(Z),14(Z)-dienoic acid], the “reversal of HET0016 blockade of U251 cell proliferation” value (U251 human glioma cells; 1 μM 20-HETE agonist + HET0016) was “about 70%” and the “increase of U251 cell proliferation” value (U251 human glioma cells) was “about 20%”.

For “EGF: epidermal growth factor, positive control for proliferation”, the “angiogenic response to growth factor alone” value (rat cornea) was “Vigorous angiogenic responses”, the “increase of proliferation of 9L cells” value (9L rat gliosarcoma cells; EGF 200 ng/ml) was “about 30%” and the “effect on number of 9L cells” value (9L rat gliosarcoma cells; EGF 200 ng/ml, 24 and 48 hrs) was “increased the number of cells”.

With VEGF the “effect on proliferation of HUVECs” value (HUVECs; 250 ng/ml VEGF alone) was “stimulated proliferation” and the “angiogenic response to growth factor alone” value (rat cornea) was “marked neovascularization response; also recorded: Vigorous angiogenic responses”.

For “bFGF: basic fibroblast growth factor, purchased from R&D Systems”, the “angiogenic response to growth factor alone” value (rat cornea) was “Vigorous angiogenic responses”.

Source: US20050124618A1, “Methods of modulating angiogenesis and cancer cell proliferation” (priority 2003, published 2005)
